From patent US9964534B2, “Method of making a skin care composition” (The Procter & Gamble Company, priority 2014, dated 2018)

B1: HMGB1: recombinant HIS-tagged HMGB1 available from Sigma; high-mobility group protein B1, SEQ ID No. 1 (protein, listed as Homo sapiens)
chain: MGKGDPKKPRGKMSSYAFFVQTCREEHKKKHPDASVNFSEFSKKCSERWKTMSAKEKGKFEDMAKADKARYEREMKTYIPPKGETKKKFKDPNAPKRPPSAFFLFCSEYRPKIKGEHPGLSIGDVAKKLGEMWNNTAADDKQPYEKKAAKLKEKYEKDIAAYRAKGKPDAAKKGVVKAEKSKKKKEEEEDEEDEEDEEEEEDEEDEDEEEDDDDE
modifications: His tag

Experiments:
HMGB1 = HMGB1 quantitation from keratinocytes (ELISA of supernatant, normalized to total protein); format: cell-based; conditions: for HMGB1 levels relative to the control: result in words
Protocol: Make a 210 mL suspension of keratinocytes at 40,000 cells/mL using suitable media to make a cell suspension. Place 2 mL of the cell suspension into the appropriate number of wells of one or more 12-well plates as needed, using the same velocity and insertion angle for each well as cells are pipetted. Incubate the 12-well plates overnight at 37° C. If the cell plating quality is poor (e.g., cells are not attached to plate or seeding density is uneven), discard and start over. Prepare a dosing media by diluting the test agent to the desired concentration (e.g., from 0.0001% to 10%) in a suitable media (e.g., the same media used to make the cell suspension). […] It is not uncommon for skin care actives to be included in skin care compositions at these levels. Optionally, include sufficient solublizer to provide 0.1% solublizer in the test sample. Add 2 mL of dosing media into each well of a 12-well plate and incubate at 4° C. overnight or until test agent is to be added to the test sample. Place prepared dosing media in the 37° C. incubator for at least 30 minutes, or until pH has equalized. When dosing media is warmed and at proper pH, dose the cells. Incubate the dosed cells at 37° C. for 6 hours. Keratinocytes (or other cells) are plated out in 12 well plates as described above with a seeding density of about […] and incubated overnight at 37° C. with 5% CO2. The keratinocytes are dosed with a dosing medium containing the test agent and the plates returned to the incubator for another 20 hours. The supernatant for each is collected and the HMGB1 level analyzed using ELISA (USCN Life Sciences) in accordance with manufacturer's instructions. The cells are lysed with Glo Lysis Buffer (Promega) and the protein levels determined using BCA kits (Pierce) per manufacturer's instructions. The values of HMGB1 determined by ELISA and normalized to total protein levels from the cells.

[1] = tested on: primary human melanocytes; assay: Melanocyte dendricity and size measurements (Incucyte ZOOM live cell imaging); format: cell-based; conditions: melanocytes contacted with HMGB1, over the span of three days
Excerpt: The ability of a test agent to inhibit dendricity and cell body growth in melanocytes may be determined by contacting a sample of melanocytes with the test agent, measuring the change in dendricity and/or cell body growth and comparing the measured indicator to a control to determine if the test agent is identified as a skin tone agent. In some instances, it is important for the test sample to include a source of HMGB1. For example, an amount of HMGB1 (e.g., recombinant HIS-tagged HMGB1 available from Sigma) may be included in the test sample (e.g., at a final level of 0.1 μg/mL), or the test sample may include another type of cell, which can be stimulated to produce HMGB1. A control may be obtained by measuring the dendricity and/or cell body size of the melanocytes prior to contact with the test agent, measuring the dendricity and/or cell body size of the melanocytes in a control sample and/or from the dendricity and/or cell body size of melanocytes published in scientific literature, if available.
Primary human melanocytes (ATCC) are cultured for 2 passages in T150 flasks. For dendricity experiments, melanocytes are plated into 96 well plates (clear) at a density of about 5000 cells/well. The plates are placed into an Incucyte ZOOM® live cell imaging system (Essen Bioscience, Ann Arbor, Mich.) which resides inside a 37° C., 5% CO2 incubator. […]

| Molecule | HMGB1 levels relative to the control (HMGB1) | HMGB1 (pg)/protein (ug) (HMGB1; test agent 0.001%) [pg/ug protein] | HMGB1 (pg)/protein (ug) (HMGB1; test agent 0.005%) [pg/ug protein] | HMGB1 (pg)/protein (ug) (HMGB1; test agent 0.02%) [pg/ug protein] | cell body size of melanocytes relative to the control [1] | dendricity (dendrite length) of melanocytes relative to the control [1] |
| --- | --- | --- | --- | --- | --- | --- |
| hydroxycinnamic acid [HCA] | significantly reduced | 29 | 6 | 2 | – | – |
| methyl hydroxycinnamic acid [ME-HCA] | significantly reduced | 33 | 28 | 4 | – | – |
| B1 | – | – | – | – | significantly larger | significantly longer |
